Assay results as given in patent publication US20070292403A1, “Methods of treating a neurological disorder with creatine monohydrate” (priority 2006, published 2007).

What was measured:
Type in all cases: in vivo, human
cortical thinning in HD = experiment: Example 3: morphometric neuroimaging, rate of cortical thinning; settings: high dose creatine
Protocol: High dose creatine slows cortical thinning. Morphometric neuroimaging was performed in all subjects. Longitudinal data from up to three years prior to initiating creatine was available on 6 or the 10 subjects. The rate of thinning of cortical regions in HD was modeled based on the longitudinal data and a change in rate was determined for each region of the group while on creatine. […] Creatine reduced the rate of thinning in almost every region, and the rate of change was statistically significant for several regions and amounted to about a 30% slowing. There was no effect on the rate of caudate volume loss (p=0.67), rate of putamen volume loss, or on total brain volume. The lack of an effect on striatal volumes likely reflects the fact that in these individuals, caudate and putamen volumes were already reduced by more than half and the lack of change in whole brain by the fact that small proportion of the brain is represented by the detected change.

patients with ALS = experiment: Example 4: combined survival analysis of two placebo-controlled trials in amyotrophic lateral sclerosis; settings: 5 gm per day
Protocol: The two trials analyzed included a total of 211 patients, 103 creatine-treated and 108 placebo-treated subjects.
For this analysis, a measure of treatment effect in an estimated pooled hazard ratio was calculated. This measure gives the risk of death for treated subjects divided by the risk of death for controls. Survival analysis by treatment was also performed for each trial separately. A Cox model was used to assess the hazard ratios and survival by treatment in the pooled data, controlling for trial effect and baseline variables. Baseline characteristics of the study populations were also compared. Continuous variables were compared by treatment and trial, using the analysis of variance by putting both treatment and trial as the […] variables. A Cochran-Mantel-Haenszel test statistic was used to compare discrete variables by treatment and trial, controlling for trial and treatment effects, respectively.

[1] = tested on: subjects with Huntington's disease; experiment: Example 1: tolerability, safety and clinical (UHDRS) measures of creatine 8 g/day in Huntington's disease, randomized placebo-controlled; parameters: Serum creatinine: unit: mg/dL; settings: for Serious adverse events / Study withdrawal before week 24: monohydrate
Protocol: Study design. Sixty-four subjects were enrolled at four sites. Eligible subjects were randomized to 8 g/day of creatine monohydrate or placebo by computer-generated blocked randomization with site stratification. Treatment was administered as chewable wafers twice daily for 16 weeks. A medical monitor and independent safety committee reviewed clinical data monthly. Consent, study procedures, and case report forms were approved by the institutional review board at each site. Blood samples for analysis of serum biomarkers were obtained with consent from 30 age-appropriate individuals without neurological illnesses.
Eligibility criteria. Eligible subjects were 18 years of age and older with a diagnosis of Huntington's disease confirmed by genetic testing, a total functional capacity score of ≧5, and a caregiver to witness consent and monitor compliance. Exclusion criteria included previous creatine exposure within 30 days of baseline; underlying hematological, hepatic, or renal disease; screening white blood cell count <3,800/mm^3; creatinine >2.0 mg/dL or alanine aminotransferase greater than twice the upper normal limit; or unstable medical/psychiatric illness.
(§1) Study protocol. Subjects were screened within 25 days of randomization (baseline visit). Screening included assessment of eligibility criteria, medical history, physical examination, Unified Huntington's Disease Rating Scale (UHDRS), EKG, DNA analysis, complete blood count, chemistry panel, and urinalysis. Subjects were on study drug (creatine or placebo) for 16 weeks, followed by an 8-week washout. Study visits occurred at baseline, weeks 8, 16, and 24 with telephone contacts at weeks 1, 10 and 20. Physical examination was done at screening and week 16. UHDRS scores, vital signs, adverse event assessment, and safety laboratory tests were repeated at all visits. Blood was collected for serum creatine levels and serum 8-hydroxy-2′-deoxyguanosine (8OH2′dG), a measure of oxidative injury affecting DNA. The later was analyzed in the samples from two sites. Magnetic resonance spectroscopy (MRS; STEAM; TR/TE=6000/20 milliseconds) of frontal cortex (voxel size=56 cc) and occipital cortex (voxel size=18 cc) performed at one site was analyzed for this report. Subject compliance was assessed by wafer counts.
Statistical analysis. The primary outcome measure was tolerability. […] Within 27 subjects per group, there was a 94% power to detect an absolute difference of 50% or more between the placebo group and the active treatment group assuming a 15% dropout rate. In accordance with intent to treat, all randomized subjects were included in safety and tolerability analysis. Tolerability was assessed by comparing the proportion of treatment failures in creatine and placebo groups using χ^2 test with continuity correction. As the primary interest was in detecting intolerability in the active group, a one-sided test was used (significance=0.05). This was also applied to assess adverse events and laboratory abnormalities. The laboratory score changes from screening were analyzed by repeated-measures analysis of variance (ANOVA), and the differences between visits were analyzed by paired t test. Demographic and baseline variables were summarized for each group, and comparisons made using Fischer's exact test and continuous variables were compared using t test. Changes in UHDRS motor, cognitive, behavioral, and functional component subscores were measured at baseline and weeks 8, 16, and 24 and analyzed by mixed-model ANOVA.

[2] = tested on: serum 8-hydroxy-2′-deoxyguanosine (8OH2′dG); experiment: Example 1: serum 8OH2'dG biomarker of oxidative injury to DNA; settings: baseline to 16 weeks, 8 g/day; SD=13.93; placebo increase 5.87; p<0.0042
Source text: as §1

serum 8OH2′dG = experiment: Example 3: serum 8OH2'dG suppression in dose escalation
Protocol: A two-phase open-label study was conducted to better determine an optimal dose of creatine symptomatic subjects with Huntington's disease. A dose-escalation study (10-40 grams per day) was conducted to determine the maximally tolerated dose (MTD) followed by a de-escalation phase to assess whether brain and serum levels of creatine might be maximal at doses lower than the MTD. Ten subjects were enrolled and followed prospectively for two weeks at each done level increasing in 5-gram increments during dose escalation that lasted 13 weeks. Assessments at each visit included UHDRS, EKG, vital signs, clinical safety and research labs. MRI spectroscopy was conducted prior to baseline at peak done (40 grams) and one month after de-escalation to either 30 or 15 grams daily. To determine an optimal dose, pharmacokinetic as well as clinical data were considered. Once the maximal dose was reached, subjects were assigned one of two lower doses previously taking (15 grams a day (n=5) or 30 grams a day (n=5)). Serum creatine was assessed at baseline, at the end of each 2-week dose escalation step and at the end of the de-escalation phase to assess the correspondence between serum and brain levels of creatine at steady state.

[3] = 8 g/day, n = 32, frequency, listed as creatine
[4] = adverse event frequency, 8 g/day, n = 32

For `CN(CC(=O)O)C(=N)N` [Creatine, creatine monohydrate], the “Effect on rate of caudate volume loss, rate of putamen volume loss, total brain volume” value (cortical thinning in HD; caudate p=0.67) was “no effect”, the “Slowing of the rate of cortical thinning” value (cortical thinning in HD; several cortical regions statistically significant, longitudinal data on 6 of 10 subjects) was about 30% and the “Improvement of median survival over placebo” value (patients with ALS; pooled data) was “two-to-three”. The “Adjusted hazard ratio, creatine group relative to placebo group” value (patients with ALS; pooled data of two trials, Cox model, 95% confidence interval 0.11 to 1.04, p=0.059) was 0.34, the Median survival (patients with ALS; pooled data, placebo 27 months) was 87 months and the “Hazard ratio, homogeneity of effect between trials” value (patients with ALS; p=0.062, 95% confidence interval 0.11 to 1.06) was 0.34. The Laboratory abnormalities ([1]; 8 g/day) was “mild reversible serum creatinine and alkaline phosphatase elevations”, the Tolerability ([1]; 8 g/day, chewable wafers twice daily, 16 weeks) was “well tolerated” and the “All adverse events: mild, moderate and severe, (%)” value ([1]; 8 g/day, n = 32) was 86.9%. For the same compound, the “All adverse events: mild, moderate and severe, no.” value ([1]; 8 g/day, n = 32, frequency) was 26, the Serious adverse events [1, 3] was “three” and the “Study withdrawal before week 24” value [1, 3] was “three”. For the same compound, the Serious adverse events ([1]; 8 g/day, n = 32, frequency) was 3, the “Study withdrawal before week 24” value ([1]; 8 g/day, n = 32, frequency) was 2 and the “Body mass index and UHDRS subscores compared with baseline” value ([1]; 8 g/day, paired t test) was “did not change with treatment”. It also gave an Apathy [1, 4] of 1, a Cough [1, 4] of 1 and a Depression [1, 4] of 4. The Dizziness [1, 4] was 1, the Dysphagia [1, 4] was 1 and the Fall [1, 4] was 3. For the same compound, the Hematuria [1, 4] was 1, the Increased movements [1, 4] was 1 and the Irritability [1, 4] was 3. It also gave a Lethargy [1, 4] of 2, a Vomiting [1, 4] of 1 and a Serum creatinine ([1]; creatine group by week 8, from 0.88±0.19, p<0.01, elevated at week 16, baseline at washout, in mg/dL (unit assumed)) of 1.04±0.24. The “Average reduction of serum 8OH2′dG” value [2] was 9.11 pg/mL, the “Doses associated with maximum suppression of serum 8OH2′dG, levels similar to normal controls” value (serum 8OH2′dG) was “greater than 25 grams daily” and the “Serum 8OH2′dG” value (serum 8OH2′dG; greater than seen with 8 grams per day) was “dose dependent suppression”.
